Measured values reported in PubChem BioAssay AID608 (Sanford-Burnham Center for Chemical Genomics, 2007).
Activity calls are given as the source filed them. The rule behind the calls is not given here.

Target: Peptidyl-prolyl cis-trans isomerase FKBP1A (Homo sapiens) (UniProt P62942)
Assay: FKBP12 binders, biophysical, NMR detection (AID 608)
Conditions: NMR binding, purified FKBP12

Chain of Peptidyl-prolyl cis-trans isomerase FKBP1A (Homo sapiens) (P62942 whole entry, looked up): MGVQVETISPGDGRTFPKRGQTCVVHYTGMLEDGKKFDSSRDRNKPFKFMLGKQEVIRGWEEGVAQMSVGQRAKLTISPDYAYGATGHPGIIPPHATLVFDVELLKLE

SMILES	Kd
CNC(=O)n1ccc(C(=O)N2CCCCC2)n1	> 4 mM (inactive)
CC(=O)O[C@H]1C[C@@H](OC(C)=O)C(C)(C)C2C[C@@H](OC(C)=O)[C@]3(C)C(CC[C@@]4(C)[C@H](c5ccoc5)OC(=O)[C@H]5O[C@]543)[C@]21C (stereo partly specified)	> 4 mM (inactive)
Nc1ccc(NC(=O)c2ccco2)c(Cl)c1	> 4 mM (inactive)
CC(=O)N1CCc2cc(NC(=O)c3ccc(C)cc3)ccc21	> 4 mM (inactive)
CN(C)S(=O)(=O)c1ccc(C(=O)NN)cc1	> 4 mM (inactive)
NC(=O)CCn1c(=O)oc2ccccc21	> 4 mM (inactive)
Cc1sc2nc(C)n(NC(N)=O)c(=O)c2c1C	> 4 mM (inactive)
NS(=O)(=O)c1ccc(N2CCCC2=O)cc1	> 4 mM (inactive)
Oc1cnc2ccccc2c1CN1CCOCC1	> 4 mM (inactive)
C[C@@H]1CC[C@]2(C(=O)O)CC[C@]3(C)C(=CCC4[C@@]5(C)CC[C@H](O)C(C)(C)C5CC[C@]43C)C2[C@H]1C (stereo partly specified)	> 4 mM (inactive)
S=c1[nH]nc(-c2cccnc2)n1Cc1ccccc1	> 4 mM (inactive)
Cc1cc(C(=O)N2CCC3(CC2)OCCO3)cs1	> 4 mM (inactive)
OC[C@@H](O)[C@@H](O[C@@H]1O[C@H](CO)[C@@H](O)[C@H](O)[C@H]1O)[C@H](O)[C@@H](O)CO	> 4 mM (inactive)
Cc1nn(C)c(C)c1C(=O)O	> 4 mM (inactive)
Cc1cccc(C)c1NC(=O)CN1CCOCC1	> 4 mM (inactive)
O=C(Nc1ccc2c(c1)OCO2)c1cnn2cccnc12	> 4 mM (inactive)
CCNC(=S)N1CCC(C(N)=O)CC1	> 4 mM (inactive)
c1ccc2[nH]c(SCc3cscn3)nc2c1	inactive
CCOC(=O)c1c(C)nc2sccn12	> 4 mM (inactive)
CNS(=O)(=O)c1ccc2[nH]c(=O)[nH]c2c1	> 4 mM (inactive)
Fc1ccc(-c2n[nH]c(=S)n2CC2CCCO2)cc1 (stereo unspecified)	> 4 mM (inactive)
CN1CCC(O)N1C(=O)c1ccccc1O (stereo unspecified)	> 4 mM (inactive)

SMILES	Kd
COc1c(CC=C(C)C)c2c(c3oc(=O)c(-c4ccc(O)cc4)c(O)c13)C=CC(C)(C)O2	> 4 mM (inactive)
NC(=O)CS(=O)(=O)c1ccc2ccccc2c1	> 4 mM (inactive)
O=C(Nc1cccnc1)c1ccc(Br)s1	> 4 mM (inactive)
C=CCn1c(=S)[nH]c2ccc(Br)cc2c1=O	> 4 mM (inactive)
CN(C)C(=O)Nc1ccc(F)cc1F	> 4 mM (inactive)
C=CCn1c(-c2ccc(O)cc2)n[nH]c1=S	> 4 mM (inactive)
Cn1c(CNc2ccccc2)cc(=O)n(C)c1=O	> 4 mM (inactive)
CC(=O)Nc1ccc(C(=O)N2CCOCC2)cc1Cl	> 4 mM (inactive)
CCSc1nnc2[nH]c(=O)cc(C)n12	> 4 mM (inactive)
CCc1noc(C)c1C(=O)N1CCOCC1	> 4 mM (inactive)
NC(=O)c1cccnc1Oc1ccccc1	> 4 mM (inactive)
O=c1[nH]cc(COCc2ccccc2)c(=O)[nH]1	> 4 mM (inactive)
Nc1nc(CSc2ncn(-c3ccccc3)n2)cs1	> 4 mM (inactive)
N#Cc1ccccc1Cn1c(-c2cscn2)nc2ccccc21	inactive
O=C(c1cccc(C(F)(F)F)c1)N1CCCC1	> 4 mM (inactive)
CC(=O)Oc1ccc(-c2cc(=O)c3c(OC(C)=O)cc(OC(C)=O)cc3o2)cc1	> 4 mM (inactive)
O=C1C=CC(=O)c2c(O)cccc21	> 4 mM (inactive)
Cc1ccc(C)c(C(=O)NCc2ccncc2)c1	> 4 mM (inactive)
O=C(O)C1CN2CCC1CC2 (stereo unspecified)	> 4 mM (inactive)
Cc1cc(C)n(-c2nc(N)cc(=O)[nH]2)n1	> 4 mM (inactive)
O=C(Nc1ccc2c(c1)CCC2)c1cnccn1	> 4 mM (inactive)
CC(=O)Nc1ccc(C(=O)NC2CCSC2=O)cc1 (stereo unspecified)	> 4 mM (inactive)

SMILES	Kd
Cc1ccc(-c2c(C)n([O-])c(C)c(C)[n+]2=O)cc1	> 4 mM (inactive)
COC(=O)c1cncn1C	> 4 mM (inactive)
CC(=O)NC(=S)Nc1ccc(C(C)=O)cc1	> 4 mM (inactive)
CC(C)c1ccccc1NC(=O)c1cnccn1	> 4 mM (inactive)
Cn1nnc2cc(C(=O)NCc3ccco3)ccc21	> 4 mM (inactive)
CC(CC(=O)O)n1cccn1 (stereo unspecified)	> 4 mM (inactive)
O=C(NCc1cccc(Cl)c1)c1cnccn1	> 4 mM (inactive)
Cn1c(CSc2nc3ccccc3s2)n[nH]c1=S	> 4 mM (inactive)
Nc1cccc2c(=O)[nH][nH]c(=O)c12	> 4 mM (inactive)
COc1cccc2c(=O)n(CC(N)=O)ccc12	> 4 mM (inactive)
CCCCCC1C(=O)CCC1CC(=O)O (stereo unspecified)	> 4 mM (inactive)
COc1ccc([C@@H]2CC(=O)c3c(O)cc(O)cc3O2)cc1O	> 4 mM (inactive)
Cc1cc(C)nc(N2CC(=O)N(C)C2=N)n1	> 4 mM (inactive)
O=c1[nH]cc(N=Cc2ccc(F)cc2)c(=O)[nH]1	> 4 mM (inactive)
O=C1CN(C(=O)c2ccccc2F)c2ccccc2N1	> 4 mM (inactive)
O=C(C1CCNCC1)N1CCCCCC1	> 4 mM (inactive)
COc1cc(OC)c2c(=O)c(-c3ccc4c(c3)OCO4)coc2c1	> 4 mM (inactive)
Cc1cc(NC(=O)c2cccc(N3C(=O)CCC3=O)c2)no1	> 4 mM (inactive)
Cc1cc(NC(=O)CSc2nncn2C)no1	> 4 mM (inactive)
O=C(Nc1cccnc1)c1c(F)c(F)c(F)c(F)c1F	> 4 mM (inactive)
Nc1ccc(N2CCOCC2)cc1	> 4 mM (inactive)
Cc1ccc(SCc2cc(=O)n3[nH]c(C)nc3n2)cc1	> 4 mM (inactive)

SMILES	Kd
Cc1oc(-c2ccccc2)cc1C(N)=O	> 4 mM (inactive)
O=[n+]1c2c(n([O-])c3ccccc31)CCCC2	> 4 mM (inactive)
COC(=O)CSc1ncnc2c(C)csc12	> 4 mM (inactive)
C=C(C)[C@@H]1[C@H]2OC(=O)[C@@H]1[C@]1(O)C[C@H]3O[C@]34C(=O)O[C@H]2[C@]14C	> 4 mM (inactive)
OCc1ncoc1-c1ccccc1	> 4 mM (inactive)
Cc1cc(C)n2nc(SCC(=O)c3ccccc3)nc2n1	> 4 mM (inactive)
COC(=O)CSc1n[nH]c(N)n1	> 4 mM (inactive)
CCOC(=O)c1cnc2sccn2c1=O	> 4 mM (inactive)
O=C(Nc1ccc(N2CCCC2=O)cc1)c1cccc(F)c1	> 4 mM (inactive)
CN1C(=O)c2ccc(C(=O)NCc3ccccc3)cc2C1=O	> 4 mM (inactive)
NC1=NC(=O)/C(=C/c2ccccc2[N+](=O)[O-])S1	> 4 mM (inactive)
Nc1cncc(C(=O)O)c1	> 4 mM (inactive)
CCc1ccc(C(=O)N2CCCC2)s1	> 4 mM (inactive)
O=C(O)c1ccc2c(c1)CCO2	> 4 mM (inactive)
O=C(O)CNC(=O)c1ccccc1	> 4 mM (inactive)
NC(=O)C12CC3CC(C1)C(=O)C(C3)C2	> 4 mM (inactive)
CN=C(c1ccc([N+](=O)[O-])cc1)N(C)C	> 4 mM (inactive)
CC1=NN(c2ccc(N)cc2)C(=O)C1	> 4 mM (inactive)
O=C(Cc1cccs1)Nc1ccccn1	> 4 mM (inactive)
O=C1NC(=O)C(C2SC(=O)NC2=O)S1 (stereo unspecified)	> 4 mM (inactive)
